Reference: US11104648B2, “Pyrazole derivative” (Zhejiang Research Institute of Chemical Industry Co., Ltd., priority 2018, dated 2021)

Key:
Type in all cases: in vivo
[1] = test system: adult Tetranychus cinnabarinus; assay: Activity assay of adult Tetranychus cinnabarinus (whole-plant spray on bean seedlings); conditions: concentration 2.5 mg/L, 48 h, read-out: adult mite-killing activity
Summary of the method: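 Bean seedlings at two-true-leaf stage, infested with adult mites and base count taken, sprayed whole-plant with compound in DMF (≤10%) diluted in 1‰ Tween 80. Three replicates per treatment kept in standard observation room. Surviving mites counted at 48 h to give death rate.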

[2] = test system: Tetranychus cinnabarinus Nymphs; assay: Activity assay of Tetranychus cinnabarinus nymphs (spray on broad bean leaves); conditions: 48 h, concentration 2.5 mg/L, read-out: nymph-killing activity
Summary of the method: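 Compound in DMF (≤10%) diluted in 1‰ Tween 80 water was sprayed onto broad bean leaves carrying nymphs hatched from eggs laid by female adults over 24 h. Kept at 26±2° C., 70%–80% humidity, 16 h light; mortality (no response to touch) assessed after 48 h, three replicates with blank control.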

[3] = test system: Eggs of Tetranychus Cinnabarinus; assay: Activity assay of eggs of Tetranychus cinnabarinus (spray method, ovicidal); conditions: Tetranychus cinnabarinus; concentration 5 mg/L; spray; non-incubated eggs counted as dead; read-out: ovicidal activity
Summary of the method: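 Female mites laid eggs on broad bean leaves for 24 h, adults removed, eggs sprayed with compound in DMF (≤10%)/1‰ Tween 80. Held at 26±2° C, 70–80% humidity, 16 h light; unhatched eggs counted dead once blank control hatched. Three replicates.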

Molecule `C=CCOC(=O)OCO/C(=C(/C#N)c1ccc(C(C)(C)C)cc1)c1cc(C)nn1C` [Compound 474] has a pest or weed control at 2.5 µg/mL [1] of no less than 90%, a pest or weed control at 2.5 µg/mL [2] of no less than 95% and a pest or weed control at 5 µg/mL [3] of no less than 90%.
Work on `C#CCOC(=O)OCO/C(=C(/C#N)c1ccc(C(C)(C)C)cc1)c1cc(C)nn1C` [Compound 476] yielded a pest or weed control at 2.5 µg/mL [1] of no less than 90%, a pest or weed control at 2.5 µg/mL [2] of no less than 95% and a pest or weed control at 5 µg/mL [3] of no less than 90%.
`COC(=O)COC(=O)OCO/C(=C(/C#N)c1ccc(C(C)(C)C)cc1)c1cc(C)nn1C` [Compound 477] showed a pest or weed control at 2.5 µg/mL [1] of no less than 90%, a pest or weed control at 2.5 µg/mL [2] of no less than 95% and a pest or weed control at 5 µg/mL [3] of no less than 90%.
`CCSC(=O)OCO/C(=C(/C#N)c1ccc(C(C)(C)C)cc1)c1cc(C)nn1C` [Compound 480] showed a pest or weed control at 2.5 µg/mL [1] of no less than 90%, a pest or weed control at 2.5 µg/mL [2] of no less than 95% and a pest or weed control at 5 µg/mL [3] of no less than 90%.
`COC(=O)CSC(=O)OCO/C(=C(/C#N)c1ccc(C(C)(C)C)cc1)c1cc(C)nn1C` [Compound 481] showed a pest or weed control at 2.5 µg/mL [1] of no less than 90%, a pest or weed control at 2.5 µg/mL [2] of no less than 95% and a pest or weed control at 5 µg/mL [3] of no less than 90%.
Molecule `COC(=O)OC(C)O/C(=C(/C#N)c1ccc(C(C)(C)C)cc1)c1cc(C)nn1C` (stereo not drawn) [Compound 483] has a pest or weed control at 2.5 µg/mL [1] of no less than 90%, a pest or weed control at 2.5 µg/mL [2] of no less than 95% and a pest or weed control at 5 µg/mL [3] of no less than 90%.
Molecule `Cc1cc(/C(OC(C)OC(=O)OC(C)C)=C(\C#N)c2ccc(C(C)(C)C)cc2)n(C)n1` (stereo not drawn) [Compound 486] has a pest or weed control at 2.5 µg/mL [1] of no less than 90%, a pest or weed control at 2.5 µg/mL [2] of no less than 95% and a pest or weed control at 5 µg/mL [3] of no less than 90%.
`CCCCOC(=O)OC(C)O/C(=C(/C#N)c1ccc(C(C)(C)C)cc1)c1cc(C)nn1C` (stereo not drawn) [Compound 488] showed a pest or weed control at 2.5 µg/mL [1] of no less than 90%, a pest or weed control at 2.5 µg/mL [2] of no less than 95% and a pest or weed control at 5 µg/mL [3] of no less than 90%.
Molecule `Cc1cc(/C(OC(C)OC(=O)OCC(C)C)=C(\C#N)c2ccc(C(C)(C)C)cc2)n(C)n1` (stereo not drawn) [Compound 489] has a pest or weed control at 2.5 µg/mL [1] of no less than 90%, a pest or weed control at 2.5 µg/mL [2] of no less than 95% and a pest or weed control at 5 µg/mL [3] of no less than 90%.
With `Cc1cc(/C(OC(C)OC(=O)OCCC(C)C)=C(\C#N)c2ccc(C(C)(C)C)cc2)n(C)n1` (stereo not drawn) [Compound 490] the pest or weed control at 2.5 µg/mL [1] was no less than 90%, the pest or weed control at 2.5 µg/mL [2] was no less than 95% and the pest or weed control at 5 µg/mL [3] was no less than 90%.
Molecule `CCCCCOC(=O)OC(C)O/C(=C(/C#N)c1ccc(C(C)(C)C)cc1)c1cc(C)nn1C` (stereo not drawn) [Compound 492] has a pest or weed control at 2.5 µg/mL [1] of no less than 90%, a pest or weed control at 2.5 µg/mL [2] of no less than 95% and a pest or weed control at 5 µg/mL [3] of no less than 90%.
With `Cc1cc(/C(OC(C)OC(=O)OCCCl)=C(\C#N)c2ccc(C(C)(C)C)cc2)n(C)n1` (stereo not drawn) [Compound 494] the pest or weed control at 2.5 µg/mL [1] was no less than 90%, the pest or weed control at 2.5 µg/mL [2] was no less than 95% and the pest or weed control at 5 µg/mL [3] was no less than 90%.
`Cc1cc(/C(OC(C)OC(=O)OCC(F)(F)F)=C(\C#N)c2ccc(C(C)(C)C)cc2)n(C)n1` (stereo not drawn) [Compound 499] showed a pest or weed control at 2.5 µg/mL [1] of no less than 90%, a pest or weed control at 2.5 µg/mL [2] of no less than 95% and a pest or weed control at 5 µg/mL [3] of no less than 90%.
`COCCOC(=O)OC(C)O/C(=C(/C#N)c1ccc(C(C)(C)C)cc1)c1cc(C)nn1C` (stereo not drawn) [Compound 500] showed a pest or weed control at 2.5 µg/mL [1] of no less than 90%, a pest or weed control at 2.5 µg/mL [2] of no less than 95% and a pest or weed control at 5 µg/mL [3] of no less than 90%.
For `CSCCOC(=O)OC(C)O/C(=C(/C#N)c1ccc(C(C)(C)C)cc1)c1cc(C)nn1C` (stereo not drawn) [Compound 503], the pest or weed control at 2.5 µg/mL [1] was no less than 90%, the pest or weed control at 2.5 µg/mL [2] was no less than 95% and the pest or weed control at 5 µg/mL [3] was no less than 90%.
`C=CCOC(=O)OC(C)O/C(=C(/C#N)c1ccc(C(C)(C)C)cc1)c1cc(C)nn1C` (stereo not drawn) [Compound 506] gave a pest or weed control at 2.5 µg/mL [1] of no less than 90%, a pest or weed control at 2.5 µg/mL [2] of no less than 95% and a pest or weed control at 5 µg/mL [3] of no less than 90%.
Work on `C#CCOC(=O)OC(C)O/C(=C(/C#N)c1ccc(C(C)(C)C)cc1)c1cc(C)nn1C` (stereo not drawn) [Compound 508] yielded a pest or weed control at 2.5 µg/mL [1] of no less than 90%, a pest or weed control at 2.5 µg/mL [2] of no less than 95% and a pest or weed control at 5 µg/mL [3] of no less than 90%.
For `COC(=O)COC(=O)OC(C)O/C(=C(/C#N)c1ccc(C(C)(C)C)cc1)c1cc(C)nn1C` (stereo not drawn) [Compound 509], the pest or weed control at 2.5 µg/mL [1] was no less than 90%, the pest or weed control at 2.5 µg/mL [2] was no less than 95% and the pest or weed control at 5 µg/mL [3] was no less than 90%.
`CCSC(=O)OC(C)O/C(=C(/C#N)c1ccc(C(C)(C)C)cc1)c1cc(C)nn1C` (stereo not drawn) [Compound 512] gave a pest or weed control at 2.5 µg/mL [1] of no less than 90%, a pest or weed control at 2.5 µg/mL [2] of no less than 95% and a pest or weed control at 5 µg/mL [3] of no less than 90%.
